# Article PMC9956870, “Exploring functional and structural features of chemically related natural prenylated hydroquinone and benzoic acid from Piper crassinervium (Piperaceae) on bacterial peroxiredoxin inhibition” (PLOS ONE, 2023)
# Assays:
# Prx2 (HsPrx2) = biological target: T1, Prx2 (HsPrx2) (Homo sapiens, UniProt P32119); assay: NADPH-coupled peroxidase assay (yeast Trx system); assay type: biochemical
# T1 construct: gene PRDX2
# T1 sequence (P32119 2-198): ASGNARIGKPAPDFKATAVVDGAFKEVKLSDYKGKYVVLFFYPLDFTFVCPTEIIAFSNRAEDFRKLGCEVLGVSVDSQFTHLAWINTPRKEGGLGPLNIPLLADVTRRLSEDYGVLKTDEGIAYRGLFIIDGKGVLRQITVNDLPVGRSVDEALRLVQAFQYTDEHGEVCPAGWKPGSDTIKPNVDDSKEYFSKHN
# [1] = biological target: T2, alkyl hydroperoxide reductase C (SeAhpC) (Staphylococcus epidermidis, UniProt Q8CMQ2); assay: NADPH-coupled peroxidase assay; assay type: biochemical
# T2 construct: gene ahpC
# T2 sequence (Q8CMQ2 1-189): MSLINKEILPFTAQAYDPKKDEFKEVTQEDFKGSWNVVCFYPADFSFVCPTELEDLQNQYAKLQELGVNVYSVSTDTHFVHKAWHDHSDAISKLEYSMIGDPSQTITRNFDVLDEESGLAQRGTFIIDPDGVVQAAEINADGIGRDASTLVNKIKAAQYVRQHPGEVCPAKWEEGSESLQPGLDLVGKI
compound,measurement,setting,value
"CCN1C(=O)C=CC1=O [NEM, N-ethylmaleimide]",peroxidase initial rate,Prx2 (HsPrx2),0.02 ± 0.01 μMs^-1 (v0; untreated 0.62 ± 0.03)
same,NADPH-coupled peroxidase assay,[1],"As expected for the samples subjected to NEM treatment, no peroxidase activity was detected to both enzymes"
